One may read the Emax as the maximal effect, on the per cent scale that the assay sets.

Here are results for 22 molecules from patent US10947242B2, “[1,2,4]triazolo[1,5and#8208;A]pyrimidine compounds as PDE2 inhibitors” (Janssen Pharmaceutica NV, priority 2016, dated 2021).

What all share (assay type): biochemical
The target in assay [1] is T1, Human recombinant PDE3A (hPDE3A) (Homo sapiens, UniProt Q14432).
T1 construct: purchased Scottish Biomedical; host or cells: Sf9 insect cells
As to the kind of experiment: In vitro assay PDE3A (SPA, 3H-cAMP hydrolysis).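 For all read-outs here: the method names PDE3A and the table heading PDE3B.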 The settings on record: for IC50: hPDE3B pIC50, read-out: pIC50 (converted); for Emax: read-out: hPDE3B Emax, read-out: Emax. Put shortly:
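Human PDE3A, cloned from brain, as partially purified Sf9 lysate. Substrate 0.4 μM cAMP plus [3H]-cAMP (2.4 μCi/ml final) in 50 mM Tris pH 7.8, 8.3 mM MgCl2, 1.7 mM EGTA, 60 min at room temperature, 1% DMSO final. Hydrolysis read by SPA scintillation counting against no-enzyme blanks and DMSO controls.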

Assay [2] concerns the target T2, Human recombinant PDE2A (hPDE2A) (Homo sapiens, UniProt O00408).
T2 construct: His tag (inferred from metal chelate purification); made in house; host or cells: Sf9 insect cells (baculovirus)
As to the kind of experiment: In vitro assay PDE2A (SPA, 3H-cGMP hydrolysis). The settings on record: for Emax: read-out: hPDE2A Emax.

For assay [3], the target named is T3, Human recombinant PDE10A (hPDE10A) (Homo sapiens, UniProt Q9Y233).
T3 construct: His tag (inferred from metal chelate purification); made in house; host or cells: Sf9 insect cells (baculovirus)
T3 sequence (Q9Y233 267-1055): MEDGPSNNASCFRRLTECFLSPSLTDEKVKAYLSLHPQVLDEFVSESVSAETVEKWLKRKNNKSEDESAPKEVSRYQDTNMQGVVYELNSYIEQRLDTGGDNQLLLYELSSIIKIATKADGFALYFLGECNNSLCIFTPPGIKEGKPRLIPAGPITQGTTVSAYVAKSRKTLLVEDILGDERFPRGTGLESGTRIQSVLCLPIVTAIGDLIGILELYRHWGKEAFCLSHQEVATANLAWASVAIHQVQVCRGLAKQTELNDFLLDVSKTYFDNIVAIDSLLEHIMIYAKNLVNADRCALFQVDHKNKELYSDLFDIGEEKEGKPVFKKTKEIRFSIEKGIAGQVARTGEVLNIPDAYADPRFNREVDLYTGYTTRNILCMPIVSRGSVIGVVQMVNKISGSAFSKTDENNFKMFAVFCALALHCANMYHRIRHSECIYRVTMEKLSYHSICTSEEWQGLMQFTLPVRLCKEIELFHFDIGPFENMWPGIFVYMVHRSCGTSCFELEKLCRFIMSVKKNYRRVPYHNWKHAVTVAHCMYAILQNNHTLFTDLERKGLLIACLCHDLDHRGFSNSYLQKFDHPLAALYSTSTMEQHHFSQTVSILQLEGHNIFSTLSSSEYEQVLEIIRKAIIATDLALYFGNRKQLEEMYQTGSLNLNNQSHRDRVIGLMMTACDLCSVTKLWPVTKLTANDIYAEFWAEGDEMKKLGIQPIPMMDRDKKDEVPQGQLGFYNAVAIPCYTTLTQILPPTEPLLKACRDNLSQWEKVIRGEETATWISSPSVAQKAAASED
Kind of assay: In vitro assay PDE10A, human clone (SPA, 3H-cAMP hydrolysis). The method, boiled down: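 Human recombinant PDE10A was expressed in Sf9 cells via baculovirus and incubated with compound in 50 mM Tris pH 7.8, 8.3 mM MgCl2, 1.7 mM EGTA. Substrate was 60 nM cAMP plus 0.008 μCi 3H-cAMP for 60 min at room temperature, read by SPA scintillation counting. Controls used 1% DMSO, and blanks omitted enzyme.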

The mark [4] stands for this setting: read-out: hPDE2A pIC50 (converted).
Setting [5] is: human clone (h), default, read-out: hPDE10A2 Emax.
Where [6] appears, read: human clone (h), default, read-out: hPDE10A2 pIC50 (converted).
[7] abbreviates: human clone by default (no (r) mark), read-out: hPDE10A2 or rPDE10A2 Emax.
The mark [8] stands for this setting: human clone by default (no (r) mark), read-out: hPDE10A2 or rPDE10A2 pIC50 (converted).

Where two headings read alike, the source gives them in different places.

T2 sequence (O00408 whole entry): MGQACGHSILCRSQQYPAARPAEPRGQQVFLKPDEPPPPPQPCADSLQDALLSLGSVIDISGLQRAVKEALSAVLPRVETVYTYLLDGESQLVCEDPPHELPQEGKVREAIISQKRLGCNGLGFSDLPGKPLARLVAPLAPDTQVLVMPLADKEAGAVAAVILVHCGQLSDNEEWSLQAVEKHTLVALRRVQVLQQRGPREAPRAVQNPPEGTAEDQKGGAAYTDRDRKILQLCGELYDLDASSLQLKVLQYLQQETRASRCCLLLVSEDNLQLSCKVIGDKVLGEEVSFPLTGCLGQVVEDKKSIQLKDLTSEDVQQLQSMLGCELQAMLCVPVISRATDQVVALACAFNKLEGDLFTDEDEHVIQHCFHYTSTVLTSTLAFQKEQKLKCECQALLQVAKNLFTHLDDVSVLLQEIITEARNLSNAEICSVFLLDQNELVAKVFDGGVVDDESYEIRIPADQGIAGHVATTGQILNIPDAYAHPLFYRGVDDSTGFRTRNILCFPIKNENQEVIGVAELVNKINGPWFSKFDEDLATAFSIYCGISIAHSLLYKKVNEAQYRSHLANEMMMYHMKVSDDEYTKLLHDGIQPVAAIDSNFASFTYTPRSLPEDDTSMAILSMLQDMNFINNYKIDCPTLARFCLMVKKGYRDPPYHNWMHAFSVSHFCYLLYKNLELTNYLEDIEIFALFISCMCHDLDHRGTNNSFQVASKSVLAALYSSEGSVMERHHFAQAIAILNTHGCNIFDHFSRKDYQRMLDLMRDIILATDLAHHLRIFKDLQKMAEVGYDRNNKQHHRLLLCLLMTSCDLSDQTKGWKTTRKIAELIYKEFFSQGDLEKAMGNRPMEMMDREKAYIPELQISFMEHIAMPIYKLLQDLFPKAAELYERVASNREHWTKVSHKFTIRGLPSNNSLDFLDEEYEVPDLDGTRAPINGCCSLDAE
T1 sequence (Q14432 whole entry): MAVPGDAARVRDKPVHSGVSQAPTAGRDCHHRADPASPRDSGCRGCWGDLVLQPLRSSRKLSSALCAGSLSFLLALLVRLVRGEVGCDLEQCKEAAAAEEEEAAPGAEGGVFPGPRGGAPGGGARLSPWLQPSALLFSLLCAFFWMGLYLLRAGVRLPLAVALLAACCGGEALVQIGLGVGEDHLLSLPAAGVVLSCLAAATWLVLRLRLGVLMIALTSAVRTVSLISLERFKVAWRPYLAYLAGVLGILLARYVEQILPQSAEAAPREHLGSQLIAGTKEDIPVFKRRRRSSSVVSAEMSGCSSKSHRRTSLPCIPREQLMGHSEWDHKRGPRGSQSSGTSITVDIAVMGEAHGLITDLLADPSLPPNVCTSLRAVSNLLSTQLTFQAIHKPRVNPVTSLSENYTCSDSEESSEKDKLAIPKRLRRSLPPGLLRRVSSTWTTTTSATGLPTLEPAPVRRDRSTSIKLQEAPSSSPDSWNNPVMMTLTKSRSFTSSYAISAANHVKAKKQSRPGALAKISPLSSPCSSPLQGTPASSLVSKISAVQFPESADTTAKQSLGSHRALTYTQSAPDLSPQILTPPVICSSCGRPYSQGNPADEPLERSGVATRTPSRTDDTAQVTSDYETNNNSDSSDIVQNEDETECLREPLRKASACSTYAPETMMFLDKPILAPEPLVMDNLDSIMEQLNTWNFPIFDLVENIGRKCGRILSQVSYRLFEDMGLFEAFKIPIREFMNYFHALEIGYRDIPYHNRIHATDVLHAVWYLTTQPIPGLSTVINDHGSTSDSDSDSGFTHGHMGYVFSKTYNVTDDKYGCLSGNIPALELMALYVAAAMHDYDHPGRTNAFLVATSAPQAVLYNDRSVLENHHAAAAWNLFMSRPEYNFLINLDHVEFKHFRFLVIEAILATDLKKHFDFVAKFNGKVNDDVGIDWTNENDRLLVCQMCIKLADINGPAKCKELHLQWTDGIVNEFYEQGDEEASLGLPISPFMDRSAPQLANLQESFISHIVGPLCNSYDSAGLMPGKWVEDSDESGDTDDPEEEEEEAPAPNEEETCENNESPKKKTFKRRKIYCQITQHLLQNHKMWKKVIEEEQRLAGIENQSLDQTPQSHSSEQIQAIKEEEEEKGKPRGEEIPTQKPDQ

In the case of `C[C@@H]1CCN(C(=O)c2ccc(F)cn2)C[C@H]1c1cc(C(F)F)nc2ncnn12` [Compound 251], the IC50 in assay [1] is more than 10000 nM; in assay [2] (setting [4]) it was 282 nM; in assay [3] (setting [6]), 8710 nM; in assay [3] (setting [8]) it was 8710 nM. The Emax in assay [1] came to 17%; in assay [2], 98%; in assay [3] (setting [5]) it was 53%; in assay [3] (setting [7]), 53%.
As for `Cc1nc(C(=O)N2CC[C@@H](C)[C@H](c3cc(C(F)F)nc4ncnn34)C2)c(C)o1` [Compound 252], the IC50 in assay [1] was more than 10000 nM; in assay [2] (setting [4]), 708 nM; in assay [3] (setting [6]) it was 6760 nM; in assay [3] (setting [8]) it was 6760 nM. Besides, the Emax turned out to be 17% in assay [1], 96% in assay [2], 66% in assay [3] (setting [5]) and 66% in assay [3] (setting [7]).
Turning to `C[C@@H]1CCN(C(=O)c2ncccc2C(F)(F)F)C[C@H]1c1cc(C(F)F)nc2ncnn12` [Compound 253], the IC50 is more than 10000 nM in assay [1], 457 nM in assay [2] (setting [4]), more than 10000 nM in assay [3] (setting [6]) and more than 10000 nM in assay [3] (setting [8]). For the same molecule, the Emax in assay [1] came out at 17%; in assay [2], 95%; in assay [3] (setting [5]), 39%; in assay [3] (setting [7]) it was 39%.
`C[C@@H]1CCN(C(=O)c2ccc(F)nc2)C[C@H]1c1cc(C(F)F)nc2ncnn12` [Compound 254]: the IC50 in assay [1] is more than 10000 nM; in assay [2] (setting [4]) it was 107 nM; in assay [3] (setting [6]), 3800 nM; in assay [3] (setting [8]) it was 3800 nM. Moreover, the Emax in assay [1] stood at 25%; in assay [2], 99%; in assay [3] (setting [5]), 70%; in assay [3] (setting [7]), 70%.
For the molecule `C[C@@H]1CCN(C(=O)c2cnc(CF)cn2)C[C@H]1c1cc(C(F)F)nc2ncnn12` [Compound 255], the IC50 in assay [1] is more than 10000 nM; in assay [2] (setting [4]) it was 269 nM; in assay [3] (setting [6]), 7760 nM; in assay [3] (setting [8]) it was 7760 nM. Besides, the Emax in assay [1] was found to be 28%; in assay [2] it was 95%; in assay [3] (setting [5]) it was 58%; in assay [3] (setting [7]) it was 58%.
Consider `C[C@@H]1CCN(C(=O)c2ccncn2)C[C@H]1c1cc(C(F)F)nc2ncnn12` [Compound 256], for which the IC50 in assay [1] is more than 10000 nM; in assay [2] (setting [4]), 324 nM. In addition, the Emax in assay [1] came out at 12%; in assay [2] it was 97%; in assay [3] (setting [5]), 48%; in assay [3] (setting [7]), 48%.
On to `C[C@@H]1CCN(C(=O)c2cnccn2)C[C@H]1c1cc(C(F)F)nc2ncnn12` [Compound 257], for which the IC50 is more than 10000 nM in assay [1], 263 nM in assay [2] (setting [4]), more than 10000 nM in assay [3] (setting [6]) and more than 10000 nM in assay [3] (setting [8]). Also, the Emax was 15% in assay [1], 95% in assay [2], 45% in assay [3] (setting [5]) and 45% in assay [3] (setting [7]).
In the case of `C[C@@H]1CCN(C(=O)c2cc(C(C)(C)C)on2)C[C@H]1c1cc(C(F)F)nc2ncnn12` [Compound 258], the IC50 in assay [1] was 1550 nM; in assay [2] (setting [4]) it was 151 nM; in assay [3] (setting [6]), 1260 nM; in assay [3] (setting [8]) it was 1260 nM. The Emax in assay [1] is 89%; in assay [2], 99%; in assay [3] (setting [5]), 90%; in assay [3] (setting [7]), 90%.
As for `C[C@@H]1CCN(C(=O)c2cc(C(C)(C)C)cc(C(C)(C)C)c2)C[C@H]1c1cc(C(F)F)nc2ncnn12` [Compound 259], the IC50 in assay [1] is 3550 nM; in assay [2] (hPDE2A pIC50), 427 nM; in assay [3] (setting [6]) it was 1700 nM; in assay [3] (setting [8]) it was 1700 nM. Besides, the Emax is 82% in assay [1], 99% in assay [2], 92% in assay [3] (setting [5]) and 92% in assay [3] (setting [7]).
For `Cc1oncc1C(=O)N1CC[C@@H](C)[C@H](c2cc(C(F)F)nc3ncnn23)C1` [Compound 260], the IC50 was more than 10000 nM in assay [1], 138 nM in assay [2] (setting [4]), 2950 nM in assay [3] (setting [6]) and 2950 nM in assay [3] (setting [8]). For the same molecule, the Emax turned out to be 23% in assay [1], 97% in assay [2], 74% in assay [3] (setting [5]) and 74% in assay [3] (setting [7]).
With `C[C@@H]1CCN(C(=O)c2nccnc2N)C[C@H]1c1cc(C(F)F)nc2ncnn12` [Compound 261], the IC50 is more than 10000 nM in assay [1], 363 nM in assay [2] (setting [4]), more than 10000 nM in assay [3] (setting [6]) and more than 10000 nM in assay [3] (setting [8]). Moreover, the Emax in assay [1] was found to be 19%; in assay [2], 95%; in assay [3] (setting [5]), 45%; in assay [3] (setting [7]), 45%.
On to `C[C@@H]1CCN(C(=O)c2cccnc2F)C[C@H]1c1cc(C(F)F)nc2ncnn12` [Compound 262], for which the IC50 is more than 10000 nM in assay [1], 155 nM in assay [2] (setting [4]), 3240 nM in assay [3] (setting [6]) and 3240 nM in assay [3] (setting [8]). Further, the Emax in assay [1] is 37%; in assay [2], 101%; in assay [3] (setting [5]) it was 74%; in assay [3] (setting [7]), 74%.
In the case of `Cc1nc(C(F)(F)F)ccc1C(=O)N1CC[C@@H](C)[C@H](c2cc(C(F)F)nc3ncnn23)C1` [Compound 263], the IC50 in assay [1] is 4900 nM; in assay [2] (setting [4]) it was 129 nM; in assay [3] (setting [6]), 5130 nM; in assay [3] (setting [8]), 5130 nM. Also, the Emax in assay [1] worked out at 65%; in assay [2], 99%; in assay [3] (setting [5]), 64%; in assay [3] (setting [7]), 64%.
For `Cc1nc(C)c(C(=O)N2CC[C@@H](C)[C@H](c3cc(C(F)F)nc4ncnn34)C2)s1` [Compound 264], the IC50 in assay [1] is 10500 nM; in assay [2] (setting [4]), 105 nM; in assay [3] (setting [6]) it was 3310 nM; in assay [3] (setting [8]), 3310 nM. Further, the Emax in assay [1] was determined as 47%; in assay [2], 100%; in assay [3] (setting [5]), 74%; in assay [3] (setting [7]), 74%.
On to `COc1ccc(C(=O)N2CC[C@@H](C)[C@H](c3cc(C(F)F)nc4ncnn34)C2)cc1C#N` [Compound 265], for which the IC50 is 6310 nM in assay [1], 2.4 nM in assay [2] (setting [4]), 37.2 nM in assay [3] (setting [6]) and 37.2 nM in assay [3] (setting [8]). The Emax in assay [1] is 55%; in assay [2] it was 102%; in assay [3] (setting [5]) it was 98%; in assay [3] (setting [7]), 98%.
For the molecule `C[C@@H]1CCN(C(=O)c2cc(C(C)(C)C)nc(C(C)(C)C)c2)C[C@H]1c1cc(C(F)F)nc2ncnn12` [Compound 266], the IC50 in assay [1] was 5370 nM; in assay [2] (setting [4]), 417 nM; in assay [3] (setting [6]), 2630 nM; in assay [3] (setting [8]) it was 2630 nM. The Emax in assay [1] is 74%; in assay [2], 100%; in assay [3] (setting [5]), 89%; in assay [3] (setting [7]) it was 89%.
Take `C[C@@H]1CCN(C(=O)c2c(Cl)cncc2Cl)C[C@H]1c1cc(C(F)F)nc2ncnn12` [Compound 268]: the IC50 is more than 10000 nM in assay [1], 1910 nM in assay [2] (setting [4]), more than 10000 nM in assay [3] (setting [6]) and more than 10000 nM in assay [3] (setting [8]). The Emax turned out to be 13% in assay [1], 82% in assay [2], 39% in assay [3] (setting [5]) and 39% in assay [3] (setting [7]).
`Cc1cc(C(=O)N2[C@H]3CC[C@@H]2[C@H](c2cc(C(F)F)nc4ncnn24)CC3)cc(C2CC2)n1` [Compound 274]: the IC50 in assay [1] was more than 10000 nM; in assay [2] (setting [4]) it was 288 nM; in assay [3] (setting [6]), 6030 nM; in assay [3] (setting [8]), 6030 nM. Also, the Emax in assay [1] stood at 7%; in assay [2], 97%; in assay [3] (setting [5]), 63%; in assay [3] (setting [7]), 63%.
`COc1nc(C2CC2)cc(C(=O)N2CC[C@@H](C)[C@H](c3cc(C(F)F)nc4ncnn34)C2)c1F` [Compound 276]: the IC50 was 1290 nM in assay [1], 2.24 nM in assay [2] (setting [4]) and 166 nM in assay [3] (setting [8]). Also, the Emax in assay [1] worked out at 93%; in assay [2], 100%; in assay [3] (setting [7]) it was 98%.
In the case of `Cc1nc(C2CC2)cc(C(=O)N2CC[C@@H](C)[C@H](c3cc(C(F)F)nc4ncnn34)C2)c1F` [Compound 279], the IC50 in assay [1] was 2820 nM; in assay [2] (setting [4]) it was 2.24 nM; in assay [3] (setting [8]) it was 316 nM. Besides, the Emax in assay [1] was 86%; in assay [2] it was 99%; in assay [3] (setting [7]), 96%.
Consider `Cc1cc(C(=O)N2[C@H]3CC[C@@H]2[C@H](c2cc(C(F)F)nc4ncnn24)CC3)cc(C(F)(F)F)n1` [Compound 285], for which the IC50 in assay [1] is more than 10000 nM; in assay [2] (setting [4]) it was 6920 nM; in assay [3] (setting [8]), more than 10000 nM. Further, the Emax in assay [1] was found to be 21%; in assay [2], 65%; in assay [3] (setting [7]) it was 37%.
Regarding `COCc1cc(C(=O)N2CC[C@@H](C)[C@H](c3cc(C(F)F)nc4ncnn34)C2)cc(C)n1` [Compound 288], the IC50 was more than 10000 nM in assay [1], 2.69 nM in assay [2] (setting [4]) and 417 nM in assay [3] (setting [8]). The Emax was determined as 44% in assay [1], 101% in assay [2] and 93% in assay [3] (setting [7]).
